Laboratory results taken from patent US11014924B2, “Hydantoin containing deoxyuridine triphosphatase inhibitors” (CV6 Therapeutics (NI) Limited, priority 2016, dated 2021).
One block for each compound: values may come before it.

What was measured:
[1] = target: T1, recombinant human deoxyuridine nucleotidohydrolase (dUTPase) (Homo sapiens, UniProt P33316); assay: fluorescence-based dUTPase inhibition assay; type: biochemical; details: 5 ng recombinant dUTPase, 50 pmols dUTP, 37° C. for 8 mins
T1 construct: made in house
T1 sequence (P33316 1-164 isoform P33316-2): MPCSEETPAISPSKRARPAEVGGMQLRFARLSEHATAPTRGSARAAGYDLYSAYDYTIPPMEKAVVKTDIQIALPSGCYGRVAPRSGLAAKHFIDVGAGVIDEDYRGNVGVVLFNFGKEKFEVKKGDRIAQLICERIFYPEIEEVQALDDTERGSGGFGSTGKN
Excerpt: Recombinant human deoxyuridine nucleotidohydrolase (dUTPase) is expressed and purified as described in Ladner R D, Carr S A, Huddleston M J, McNulty D E, Caradonna S J. J Biol Chem. 1996 Mar. 29; 271(13):7752-7. All drugs stocks are aliquoted and diluted as appropriate prior to use. The oligonucleotide primer, templates and fluorophore- and quencher-labeled detection probes are synthesized by Integrated DNA Technologies (Coralville, Iowa), subjected to polyacrylamide gel electrophoresis purification and reconstituted in Omnipur sterile nuclease-free water (EMD Chemicals USA, Gibbstown N.J.) at a stock concentration of 100 μmol/L. The two non-emissive (dark) quenching molecules incorporated into the detection probes include the Iowa black […] (IBFQ; absorption max 531 nm) and ZEN (non-abbreviation; absorption max 532 nm). The fluorescent label utilized is 6-FAM (5′-carboxyfluorescein; excitation max.=494 nm, emission max.=520 nm). Probes are further diluted to a working stock of 10 μmol/L and aliquoted to avoid repeated freeze/thaw cycles. […]
Reaction mixtures contained primer, probe and template at an equimolar final concentration of 0.4 μmol/L. Magnesium chloride (MgCl2) is included at a final concentration of 2 mmol/L. Non-limiting dNTPs are included in the reaction mix in excess at a final concentration of 100 μmol/L (dUTP/dTTP is excluded). […] Thermal profiling and fluorescence detection is performed using a customized thermal program on board a Roche Lightcycler LC480 Instrument II. […] Raw fluorescence spectra for 6-FAM is measured at specified time intervals to follow assay progression on board a Roche LightCycler 480 Software Version 1.5 and exported and analyzed in Microsoft Excel (Microsoft, Redmond Wash.) and Prism (GraphPad Software, La Jolla Calif.). Fluorescence values for blank reactions (limiting dNTP omitted) are subtracted to give normalized fluorescence units (NFU) to account for background fluorescence.
Test compounds are screened in a fluorescence-based assay. […]

SW620 cells = assay: MTS growth inhibition assay; type: cell-based; details: colorectal SW620; 5-FU between 0 and 100 μmol/L; 72 hours
Experimental: (§1) The Cell Titer AQueous MTS assay (Promega) is carried out according to the manufacturers guidelines. […] The combination effect is determined by the combination index (CI) method utilizing Calcusyn software (Biosoft, Ferguson, Mo.). Fraction affected (FA) is calculated from the percent growth inhibition: FA=[…]. CI values <1, synergism; 1-1.2, additive and >1.2, antagonism.
(§2) Test compounds are evaluated for their antitumor activity in colorectal cancer cells using the MTS growth inhibition assay. HCT116 and SW620 cells are exposed to increasing concentrations of each agent for 72 hours and growth inhibition is directly compared to vehicle-treated controls. The NSCLC cell lines A549 and H1299 are exposed to increasing concentrations of each agent for 72 hours and growth inhibition is directly compared to vehicle-treated controls.
(§3) MTS growth inhibition assays are performed to evaluate the effectiveness of the test compounds alone and in combination with the fluoropyrimidine thymidylate synthase (TS) inhibitor 5-fluorouracil (5-FU) at inhibiting the growth of colorectal (HCT116 and SW620) cell line models. […] Simultaneous treatment with increasing concentrations of 5-FU and a test compound at fixed concentrations of 25 μmol/L is determined.

HCT116 cells [2] = assay: MTS growth inhibition assay; type: cell-based; details: colorectal HCT116; 5-FU between 0 and 100 μmol/L; 72 hours
Experimental: as §1, §2, §3

H358 cells = assay: Colony forming assay; type: cell-based; details: non-small cell lung H358; FUdR between 0.5 and 2.5 μmol/L
Experimental: (§4) Colony forming assay showing the ability of colon (SW620, HCT116), non-small cell lung (A549, H460, H1299 and H358) and breast (MCF7) cancer cells to survive and proliferate following transient 24 hour exposure to test compounds, FUdR and combinations are determined. Specifically, cells are seeded at densities between 50 and 100 cells/well in 24-well plates. Twenty-four hours later, cells are treated with increasing concentrations of a rtest compound, a fixed dose of FUdR and combinations of these. After 24 hours, drug is removed, cells are rinsed and allowed to outgrow for 10-14 days. At the conclusion of the outgrowth, cells are fixed in 60% ice cold methanol and stained with 0.1% crystal violet, scanned and counted. Data is presented as percentage of untreated controls (mean±SD). Fraction affected and combination indexes are calculated according to the method of Chou and Talalay where <1 is indicative of a synergistic drug interaction.
(§5) Colony forming assays are performed to evaluate the effectiveness of test compounds alone and in combination with the fluoropyrimidine thymidylate synthase (TS) inhibitor fluorodeoxyuridine (FUdR) at reducing cancer cell viability in colorectal (HCT116), breast (MCF-7) and non-small cell lung (H1299, A549, H358 and H460) cell line models. […] In colorectal cancer cells, concentrations of test compounds ranging e.g., from 3.1 μmol/L to 50 μmol/L are combined with 0.5 μmol/L FUdR in HCT116 cells and 1 μmol/L FUdR in SW620 cells.

A549 cells = assay: Colony forming assay; type: cell-based; details: non-small cell lung A549; FUdR between 0.5 and 2.5 μmol/L
Experimental: as §4, §5

H460 cells = assay: Colony forming assay; type: cell-based; details: non-small cell lung H460; FUdR between 0.5 and 2.5 μmol/L
Experimental: as §4, §5

MCF-7 cells = assay: Colony forming assay; type: cell-based; details: breast MCF-7; FUdR between 0.5 and 2.5 μmol/L
Experimental: as §4, §5

H1299 cells = assay: Colony forming assay; type: cell-based; details: non-small cell lung H1299; FUdR between 0.5 and 2.5 μmol/L
Experimental: as §4, §5

HCT116 cells [3] = assay: Colony forming assay; type: cell-based; details: colorectal HCT116; FUdR between 0.5 and 2.5 μmol/L
Experimental: as §4, §5

IC50 [1]: 2.2 µM
Structure (SMILES): C[C@@H](NS(=O)(=O)Cc1ccc(CN2CC(=O)NC2=O)cc1)c1ccc(F)c(OCC2CC2)c1 [Example 82, (R)—N-(1-(3-(cyclopropylmethoxy)-4-fluorophenyl)ethyl)-1-(4-((2,4-dioxoimidazolidin-1-yl)methyl)phenyl)methanesulfonamide]

IC50 [1]: 80 µM
Structure (SMILES): C[C@@H](NS(=O)(=O)Cc1cccc(CN2CC(=O)NC2=O)c1)c1ccc(F)c(OCC2CC2)c1 [Example 81, (R)—N-(1-(3-(cyclopropylmethoxy)-4-fluorophenyl)ethyl)-1-(3-((2,4-dioxoimidazolidin-1-yl)methyl)phenyl)methanesulfonamide]

Continued, compound first:

Structure (SMILES): O=c1[nH]cc(F)c(=O)[nH]1 [Example 5-FU, 5-fluorouracil]
growth inhibition (SW620 cells): dose-dependent increases in growth inhibition
growth inhibition (HCT116 cells [2]): dose-dependent increases in growth inhibition

Structure (SMILES): C[C@@H](NS(=O)(=O)CCc1cccc(N2CC(=O)NC2=O)c1)c1ccc(F)c(OCC2CC2)c1 [Example 79, (R)—N-(1-(3-(cyclopropylmethoxy)-4-fluorophenyl)ethyl)-2-(3-(2,4-dioxoimidazolidin-1-yl)phenyl)ethane-1-sulfonamide]
IC50 [1]: ~100 µM

Structure (SMILES): O=c1[nH]c(=O)n([C@H]2C[C@H](O)[C@@H](CO)O2)cc1F [FUdR, fluorodeoxyuridine]
colonies formed (H358 cells): dose-dependent decreases in colonies formed
colonies formed (A549 cells): dose-dependent decreases in colonies formed
colonies formed (H460 cells): dose-dependent decreases in colonies formed
colonies formed (MCF-7 cells): dose-dependent decreases in colonies formed
colonies formed (H1299 cells): dose-dependent decreases in colonies formed
colonies formed (HCT116 cells [3]): dose-dependent decreases in colonies formed
